Data reported in patent US11110195B2, “Esculentin 1a derivatives and uses thereof” (University of Houston System, priority 2013, dated 2021).
≈ marks a conversion by molar mass, not a printed value. Residues, ends and D or L forms follow the SMILES beside them.

Legend:
[1] = test system: P. aeruginosa ATCC 27853; assay: Bactericidal activity in the presence of reflex human tears; format: cell-based, Pseudomonas aeruginosa; conditions: 10 μM or 20 μM peptide, 50% or 70% reflex tears
Method: FIG. 3A: Bacterial cells were incubated with 10 μM or 20 μM peptide in the presence of 50% reflex tears induced by onion vapors and pooled from three consenting adult volunteers with a normal ocular surface. FIG. 3B: Bacteria were incubated with 20 μM peptide in the presence of 70% reflex tears. In both cases, aliquots were withdrawn for cell counting at different time intervals. Mean data, expressed as the percentage of bacteria killed by the peptide are shown.
2×10^6 CFU/ml P. aeruginosa (ATCC 27853) were incubated with 10μM or 20μM Esc-1a(1-21)NH2 in the presence of 50% (FIG. 3A) or 70% (FIG. 3B) human reflex tears and aliquots withdrawn, plated and counted after 30, 90 and 120 minutes (n=3).

[2] = test system: Pseudomonas aeruginosa ATCC 19660; assay: Viable bacterial count in infected corneas; format: in vivo, C57BL/6 mice; conditions: for difference in viable bacterial counts vs PBS control: pre-treated or treated groups; for viable bacterial count in cornea: pre-treated
Source text: Corneas were harvested 1, 3 and 5 days after infection and the number of surviving bacteria determined. […] P1=post infection; Pre-trt=pretreatment with Esc-1a(1-21)NH2. *Indicates significant difference, p<0.05, among PBS control and peptide treated groups.
To determine a clinical score, neutrophil infiltration by myeloperoxidase assay (MPO assay) and viable bacterial cell counts in infected and control corneas of C57BL/6 mice with Pseudomonas aeruginosa ATCC 19660 keratitis following pre-treatment and post-infection treatment with Esc-1a(1-21)NH2 up to 5 days post-infection (PI) the following experiment was performed. In these experiments pre-treatment refers to a group of animals where treatment was initiated 24 hrs before infection then continued after infection.
To quantitate viable bacteria, a 100 μl aliquot from the corneal homogenates was serially diluted 1:10 in sterile PBS. Duplicate aliquots (20 μl) of each dilution, including the original homogenate, were plated onto nutrient agar. Plates were incubated for 14-16 h at 37° C.
The harvested corneas were homogenized, plated on growth media and the bacterial colonies recovered counted 14-18 hours post plating. Data plotted (FIG. 7) show the viable bacterial counts obtained from an average of 3 independent experiments.

[3] = test system: A. castellani (ATCC 50370) trophozoites; assay: Acanthamoeba viability, ethidium homodimer-1 time lapse microscopy; format: cell-based, Acanthamoeba castellani
Method: FIGS. 8A-8D show the effect of Esc-1a(1-21)NH2 on the viability of Acanthamoeba castellani. The amoeba were seeded in to chamber slides, then a fluorescent viability dye (ethidium homodimer-1) and 500 μg/ml Esc-1a(1-21)NH2 added. The amoebas were viewed by time lapse microscopy in an environmental chamber for 6 hours. Images are from before peptide addition at time zero in healthy trophozoites (FIG. 8A), then 10 minutes (FIG. 8B), 2 hours (FIG. 8C) and 6 hours (FIG. 8D) post addition of peptide Esc-1a(1-21)NH2. […] Significant amounts of debris accumulated over time indicating rupture of the cells.
1×10^4 A. castellani (ATCC 50370) trophozoites in PYG 712 growth medium were transferred to coverglass chamber slides and allowed to attach overnight. The cells were then incubated with PYG 712 medium containing a 1:100 dilution of ethidium homodimer-1 (EthD-1) for 15 minutes at room temperature. EthD-1 is a cell-impermeant viability indicator dye that is taken up by cells with a compromised plasma membrane and fluoresces red/orange when bound to DNA. Serial brightfield and fluorescence images were taken using a DeltaVision Spectris Core fluorescence microscope every 3 minutes for 30 minutes to visualize cellular health prior to addition of Esc-1a(1-21)NH2. The medium was then replaced with 200 μl growth media containing 125, 250 or 500 μg/ml Esc-1a(1-21)NH2 and 1:100 diluted ethidium homodimer-1. Brightfield and fluorescence images were taken every 3 minutes for another 6 hours. Serial images were compiled together using Softworx software (Applied Precision) to generate time-lapse videos.

[4] = MTT viability assay, Raw 264.7 macrophages; conditions: mouse, Raw 264.7 macrophages
Method: (§1) Cell viability is expressed as percentage with respect to the control (cells not treated with the peptides). Data points represent the mean of triplicate samples ±SEM. […] The levels of statistical significance between the two peptides are indicated as follows: **p<0.01, ***p<0.001.
(§2) Cells were plated in wells of a microtiter plate, at 4×10^4 cells/well in DMEM supplemented with 2 mM glutamine and 2% FBS (for A549 cells) or DMEM containing 2 mM glutamine, non-essential amino acids (NEAA), sodium pyruvate and 2% FBS (for Raw 264.7 macrophages). After overnight incubation at 37° C. in a 5% CO2 atmosphere, the medium was replaced with 100 μl fresh serum-free medium supplemented with the peptides at different concentrations. After 24 h of peptide treatment, cell viability was determined by a MTT assay.

[5] = test system: Raw 264.7 macrophages; assay: MTT viability assay, Raw 264.7 macrophages; conditions: 128 μM, 24 h incubation
Method: as §1, §2

[6] = test system: HaCaT keratinocytes
Source text: Cell viability is expressed as percentage with respect to the control (cells not treated with the peptide). Data points represent the mean of triplicate samples ±SEM.

[7] = test system: A549 lung epithelial cells; assay: Wound healing assay, A549 lung epithelial cells; format: cell-based, human; conditions: A549 monolayer
Method: The percentage of cell-covered area at each time point is reported on the y-axis. Control (Ctrl) represents cells not treated with the peptides. All data are the mean of at least three independent experiments ±SEM. […] Both peptides were able to stimulate the closure of the gap produced in the monolayer of A549 cells, with the optimal concentration allowing the almost complete coverage of the wound field equal to 10 μM (for the wild type peptide, FIG. 13A) or 4 μM (for the diastereomer, FIG. 13B) within approximately 24 hours or 20 hours, respectively.
As shown in FIGS. 13A-13B, Esc-1a(1-21)NH2 and its diastereomer both stimulated wound closure although at concentrations much higher than were required to induce a similar effect in human corneal epithelial cells. This may reflect cell specific differences.

[8] = test system: Pseudomonas aeruginosa; conditions: Pseudomonas aeruginosa ATCC 27853, reference strain; cited from earlier work

SMILES: CC[C@H](C)[C@H](NC(=O)CN)C(=O)N[C@@H](Cc1ccccc1)C(=O)N[C@@H](CO)C(=O)N[C@@H](CCCCN)C(=O)N[C@@H](CC(C)C)C(=O)N[C@@H](C)C(=O)NCC(=O)N[C@@H](CCCCN)C(=O)N[C@@H](CCCCN)C(=O)N[C@H](C(=O)N[C@@H](CCCCN)C(=O)N[C@@H](CC(N)=O)C(=O)N[C@@H](CC(C)C)C(=O)N[C@@H](CC(C)C)C(=O)N[C@H](C(=O)N[C@@H](CO)C(=O)NCC(=O)N[C@@H](CC(C)C)C(=O)N[C@@H](CCCCN)C(=O)NCC(N)=O)[C@@H](C)CC)[C@@H](C)CC [Esc-1a(1-21)NH2] (H-GIFSKLAGKKIKNLLISGLKG-NH2; N-terminus assumed)
- retention of activity in reflex tears [1]: activity was retained
- difference in viable bacterial counts vs PBS control ([2]; day 5 PI): 4 log10
- difference in viable bacterial counts vs PBS control ([2]; days 1 and 3 PI): 2-3 log10 CFU
- viable bacterial count in cornea ([2]; day 1 PI): 3.35 log10 CFU
- viable bacterial count in cornea ([2]; day 3 PI): 3.7 log10 CFU
- viable bacterial count in cornea ([2]; day 5 PI): 3.47 log10 CFU
- trophozoites stained positively with EthD-1 ([3]; 125 μg/ml, 6 hours): approximately 67%
- trophozoites stained positively with EthD-1 ([3]; 250 μg/ml, 10 minutes): approximately 82%
- trophozoites stained positively with EthD-1 ([3]; 250 μg/ml, 6 hours): ~100%
- time until orange/red fluorescence (dead/dying cells) detected ([3]; 500 μg/ml): ≤ 10 min
- CC50 at 24 h [4]: 64 µM
- killing [5]: 100%
- reduction in the number of metabolically-active keratinocytes ([6]; 2 h treatment, 1-64 μM): did not show any remarkable reduction
- reduction in the percentage of metabolically-active cells ([6]; 24 h, 32 μM and 64 μM): approximately 20%
- optimal concentration allowing almost complete coverage of the wound field [7]: 10 µM
- time to almost complete coverage of the wound field ([7]; at optimal concentration): approximately 24 hours
- MIC [8]: 4 µM (≈ 8.74 µg/mL)
